Experimental data reported in article PMC5863483, “Low HLA binding of diabetes-associated CD8+ T-cell epitopes is increased by post translational modifications” (BMC Immunology, 2018).
*1 amine or outer side, *2 acyl side, *3 side chain or, on linkers, in order; H or OH if unused. Where a SMILES comes first, the peptide text is derived from it. Where no end group is shown, it is not given here. [ ]: non-standard residue; d: D form. γGlu = O=C(O)[C@H](CCC(=O)[*:2])N[*:1]; Cya = N[C@@H](CS(=O)(=O)O)C(=O)O; Cit = NC(=O)NCCC[C@H](N)C(=O)O

molecular target: HLA-A*02:01 (Homo sapiens, UniProt P04439, D140Y/D185E/D98H/E176V/E277Q/G131W/G231S/I119V/I121R/I166T/I218V/L300P/L318F/N151K/N90K/P208A/P217A/Q86G/Q94H/R138H/R169H/T345S); assay: HLA-peptide competition binding assay, A*02:01; settings: not given

Compound	IC50
CSCC[C@H](NC(=O)[C@@H](N)Cc1c[nH]c2ccccc12)C(=O)N[C@@H](CCCNC(N)=O)C(=O)N[C@@H](CC(C)C)C(=O)N[C@@H](CC(C)C)C(=O)N1CCC[C@H]1C(=O)N[C@@H](CC(C)C)C(=O)N[C@@H](CC(C)C)C(=O)N[C@@H](C)C(=O)O (H-WM[Cit]LLPLLA-OH)	1010 nM
CSCC[C@H](NC(=O)[C@H](Cc1c[nH]c2ccccc12)NC(=O)[C@H](CC(C)C)NC(=O)[C@H](C)NC(=O)[C@@H](N)CCSC)C(=O)N[C@@H](CCCNC(N)=O)C(=O)N[C@@H](CC(C)C)C(=O)N[C@@H](CC(C)C)C(=O)N1CCC[C@H]1C(=O)N[C@@H](CC(C)C)C(=O)O (H-MALWM[Cit]LLPL-OH)	262 nM
MALWMRLLPL	1260 nM
LLSLFSLWL [reference compound]	152 nM
LMGDKSENV [reference compound]	7370 nM

same assay, conditions: post-translationally modified insulin peptide; competition binding assay; a dash indicates IC50 >40,000 nM; read-out: A*02:01 binding (IC50 nM) Modified

IC50	Compound
> 40000 nM	VDEHLCGSH
> 40000 nM	CC(C)C[C@H](NC(=O)[C@H](CC(=O)O)NC(=O)[C@H](CCC(=O)O)NC(=O)[C@H](C)NC(=O)[C@H](CCC(=O)O)NC(=O)[C@H](CCCNC(N)=O)NC(=O)[C@H](CCCNC(N)=O)NC(=O)[C@@H](NC(=O)[C@H](CCCCN)NC(=O)[C@@H]1CCCN1)[C@@H](C)O)C(=O)O (H-PKT[Cit][Cit]EAEDL-OH; N-terminus and C-terminus assumed)
> 40000 nM	CC[C@H](C)[C@H](NC(=O)CNC(=O)[C@H](CCCNC(N)=O)NC(=O)[C@H](CCCCN)NC(=O)[C@H](CCC(N)=O)NC(=O)[C@H](CC(C)C)NC(=O)[C@H](CO)NC(=O)CNC(=O)[C@@H](N)CCC(=O)O)C(=O)N[C@H](C(=O)O)C(C)C (H-EGSLQK[Cit]GIV-OH; N-terminus and C-terminus assumed)
> 40000 nM	CC[C@H](C)[C@H](NC(=O)CNC(=O)[C@H](CCCNC(N)=O)NC(=O)[C@H](CCCCN)NC(=O)[C@H](CCC(N)=O)NC(=O)[C@H](CC(C)C)NC(=O)[C@H](CO)NC(=O)CNC(=O)[C@@H](N)CCC(=O)O)C(=O)O (H-EGSLQK[Cit]GI-OH; N-terminus and C-terminus assumed)
> 40000 nM	CC[C@H](C)[C@H](NC(=O)CNC(=O)[C@H](CCCNC(N)=O)NC(=O)[C@H](CCCCN)NC(=O)[C@H](CCC(N)=O)NC(=O)[C@H](CC(C)C)NC(=O)[C@H](CO)NC(=O)CN)C(=O)N[C@H](C(=O)O)C(C)C (H-GSLQK[Cit]GIV-OH; N-terminus and C-terminus assumed)
> 40000 nM	CC[C@H](C)[C@H](NC(=O)CNC(=O)[C@H](CCCNC(N)=O)NC(=O)[C@H](CCCCN)NC(=O)[C@@H](N)CCC(N)=O)C(=O)N[C@H](C(=O)N[C@@H](CCC(=O)O)C(=O)N[C@@H](CCC(N)=O)C(=O)N[C@@H](CS)C(=O)O)C(C)C (H-QK[Cit]GIVEQC-OH; N-terminus and C-terminus assumed)

Continued, compound first:

Compound	IC50
C[C@@H](O)[C@H](NC(=O)[C@H](Cc1ccc(O)cc1)NC(=O)[C@H](Cc1ccccc1)NC(=O)[C@H](Cc1ccccc1)NC(=O)CNC(=O)[C@H](CCCNC(N)=O)NC(=O)[C@H](CCC(=O)O)NC(=O)CN)C(=O)N1CCC[C@H]1C(=O)O (H-GE[Cit]GFFYTP-OH; N-terminus and C-terminus assumed)	> 40000 nM
DEHLCGSHL	> 40000 nM
C[C@@H](O)[C@H](NC(=O)[C@H](CCCCN)NC(=O)[C@@H]1CCCN1C(=O)[C@@H](NC(=O)[C@H](Cc1ccc(O)cc1)NC(=O)[C@@H](N)Cc1ccccc1)[C@@H](C)O)C(=O)N[C@@H](CCCNC(N)=O)C(=O)N[C@@H](CCCNC(N)=O)C(=O)N[C@@H](CCC(=O)O)C(=O)O (H-FYTPKT[Cit][Cit]E-OH; N-terminus and C-terminus assumed)	> 40000 nM
CC(C)[C@H](N)C(=O)N[C@@H](CS)C(=O)NCC(=O)N[C@@H](CCC(=O)O)C(=O)N[C@@H](CCCNC(N)=O)C(=O)NCC(=O)N[C@@H](Cc1ccccc1)C(=O)N[C@@H](Cc1ccccc1)C(=O)N[C@@H](Cc1ccc(O)cc1)C(=O)N[C@H](C(=O)O)[C@@H](C)O (H-VCGE[Cit]GFFYT-OH; N-terminus and C-terminus assumed)	> 40000 nM
GERGYFYTPK	> 40000 nM
GERGYFYTP	> 40000 nM
GERGYYYTPK	> 40000 nM
CC(C)C[C@H](NC(=O)[C@H](Cc1c[nH]cn1)NC(=O)CC[C@H](N)C(=O)O)C(=O)N[C@@H](CS)C(=O)NCC(=O)N[C@@H](CO)C(=O)N[C@@H](Cc1c[nH]cn1)C(=O)N[C@@H](CC(C)C)C(=O)N[C@H](C(=O)O)C(C)C [ZHLCGSHLV] (γGlu-HLCGSHLV-OH; N-terminus and C-terminus assumed)	> 40000 nM
C[C@H](NC(=O)[C@H](CCC(=O)O)NC(=O)[C@H](CCCNC(N)=O)NC(=O)[C@H](CCCNC(N)=O)NC(=O)[C@@H](NC(=O)[C@H](CCCCN)NC(=O)[C@@H]1CCCN1C(=O)[C@@H](NC(=O)[C@H](Cc1ccc(O)cc1)NC(=O)[C@@H](N)Cc1ccccc1)[C@@H](C)O)[C@@H](C)O)C(=O)O (H-FYTPKT[Cit][Cit]EA-OH; N-terminus and C-terminus assumed)	> 40000 nM

same assay, conditions: post-translationally modified insulin-derived peptide; radiolabeled ligand competition, purified MHC, two-day incubation, three or more independent experiments; read-out: A*02:01 binding, Modified

IC50	Compound
8040 nM	CC(C)C[C@H](NC(=O)[C@H](C)NC(=O)[C@H](CCC(=O)O)NC(=O)[C@@H](NC(=O)[C@H](CC(C)C)NC(=O)[C@H](Cc1c[nH]cn1)NC(=O)[C@H](CO)NC(=O)CNC(=O)[C@@H](N)CS(=O)(=O)O)C(C)C)C(=O)N[C@@H](Cc1ccc(O)cc1)C(=O)O [BGSHLVEALY] (H-[Cya]GSHLVEALY-OH)
16400 nM	CC(C)C[C@H](NC(=O)[C@H](C)NC(=O)[C@@H](N)CC(C)C)C(=O)N[C@@H](CCC(=O)O)C(=O)NCC(=O)N[C@@H](CO)C(=O)N[C@@H](CC(C)C)C(=O)N[C@@H](CCC(N)=O)C(=O)N[C@@H](CCCCN)C(=O)N[C@@H](CCCNC(N)=O)C(=O)O (H-LALEGSLQK[Cit]-OH)
2120 nM	CSCC[C@H](NC(=O)[C@H](Cc1c[nH]c2ccccc12)NC(=O)[C@H](CC(C)C)NC(=O)[C@H](C)NC(=O)[C@@H](N)CCSC)C(=O)N[C@@H](CCCNC(N)=O)C(=O)N[C@@H](CC(C)C)C(=O)N[C@@H](CC(C)C)C(=O)N1CCC[C@H]1C(=O)O (H-MALWM[Cit]LLP-OH)

same assay, conditions: read-out: A*02:01 binding (IC50 nM) Modified

IC50	Compound
33500 nM	CC(C)[C@H](N)C(=O)N[C@@H](CS)C(=O)NCC(=O)N[C@@H](CCC(=O)O)C(=O)N[C@@H](CCCNC(N)=O)C(=O)NCC(=O)N[C@@H](Cc1ccccc1)C(=O)N[C@@H](Cc1ccccc1)C(=O)N[C@@H](Cc1ccc(O)cc1)C(=O)O (H-VCGE[Cit]GFFY-OH)
30200 nM	CC(C)C[C@H](NC(=O)[C@H](CC(=O)O)NC(=O)[C@H](CCC(=O)O)NC(=O)[C@H](C)NC(=O)[C@H](CCC(=O)O)NC(=O)[C@H](CCCNC(N)=O)NC(=O)[C@H](CCCNC(N)=O)NC(=O)[C@@H](N)[C@@H](C)O)C(=O)N[C@@H](CCC(N)=O)C(=O)N[C@H](C(=O)O)C(C)C (H-T[Cit][Cit]EAEDLQV-OH)
2620 nM	CC(C)C[C@H](NC(=O)[C@@H](N)Cc1ccc(O)cc1)C(=O)N[C@H](C(=O)N[C@@H](CS)C(=O)NCC(=O)N[C@@H](CCC(=O)O)C(=O)N[C@@H](CCCNC(N)=O)C(=O)NCC(=O)N[C@@H](Cc1ccccc1)C(=O)N[C@@H](Cc1ccccc1)C(=O)O)C(C)C (H-YLVCGE[Cit]GFF-OH)

same assay, conditions: read-out: A*02:01 binding (IC50 nM) WT

IC50	Compound
7990 nM	NQHLCGSHLV
5950 nM	SLQKRGIVE [SLQKRGIVE]

same assay, conditions: read-out: IC50 nM, target assay A*02:01

IC50	Compound
30300 nM	LALWGPDPAA [reference compound]
84 nM	FMTSSWWRAPL [reference compound]
530 nM	GLPAGAAAQA [reference compound]
39 nM	ILKDFSILL [reference compound]
2780 nM	CC(C)C[C@H](NC(=O)[C@@H](N)[C@@H](C)O)C(=O)N[C@@H](CO)C(=O)N[C@@H](CO)C(=O)N[C@@H](CCCNC(=N)N)C(=O)N[C@H](C(=O)N[C@@H](CS)C(=O)N[C@@H](CS)C(=O)N[C@@H](CCCNC(=N)N)C(=O)N[C@H](C(=O)O)[C@@H](C)O)C(C)C [reference compound] (H-TLSSRVCCRT-OH)
7020 nM	FIQVYEVERA [reference compound]
25100 nM	STVASRLGPV [reference compound]

Second part, the compound before the results:

Compound	IC50
SVASLLPHV [reference compound]	1760 nM
FMTSSWWGA [reference compound]	378 nM
ILAVDGVLSV [reference compound]	2.2 nM
HLSYHRLLPL [reference compound]	4260 nM
SLYHVYEVNL [reference compound]	209 nM
QLARQQVHV [reference compound]	> 40000 nM
VLNSLASLL [reference compound]	4970 nM
LLGRFELIGI [reference compound]	233 nM
SISVLISAL [SISVLISAL, reference compound]	1550 nM
VMNILLQYV [reference compound]	2020 nM
CC[C@H](C)[C@H](NC(=O)[C@H](CC(N)=O)NC(=O)[C@H](C)NC(=O)[C@H](CC(C)C)NC(=O)[C@@H](N)CCCCN)C(=O)N[C@@H](CCC(N)=O)C(=O)N[C@@H](CS)C(=O)N1CCC[C@H]1C(=O)N[C@@H](CS)C(=O)N[C@@H](CC(C)C)C(=O)O [reference compound] (H-KLANIQCPCL-OH)	121 nM
GIPPAPRGV [reference compound]	1230 nM
NLAQDLATV [reference compound]	67 nM

same assay, conditions: unmodified (WT) insulin peptide; competition binding assay; a dash indicates IC50 >40,000 nM; read-out: A*02:01 binding (IC50 nM) WT

IC50	Compound
> 40000 nM	TRREAEDLQV
> 40000 nM	LEGSLQKRGI
> 40000 nM	HLCGSHLVE
> 40000 nM	CGERGFFYTP
> 40000 nM	ALEGSLQKR
> 40000 nM	PKTRREAED [PKTRREAED]

The remaining lines, values behind:

Compound	IC50
QHLCGSHLV	> 40000 nM
YTPKTRREA	> 40000 nM
EGSLQKRGIV	> 40000 nM
PKTRREAEDL	> 40000 nM

same assay, conditions: unmodified (wild type) insulin-derived peptide; radiolabeled ligand competition, purified MHC, two-day incubation, three or more independent experiments; read-out: A*02:01 binding, WT

IC50	Compound
> 40000 nM	QHLCGSHLV
> 40000 nM	LALEGSLQKR
406 nM	LWMRLLPLLA
